Laboratory results as given in ChEMBL document CHEMBL5360552, “Potential RNA-dependent RNA polymerase (RdRp) inhibitors as prospective drug candidates for SARS-CoV-2” (Eur J Med Chem, 2023).

How the values were obtained:
SARS-CoV-2 [1] = assay: Antiviral activity against SARS-CoV-2 infected in african green monkey Vero E6 cells pretreated for 1 hrs followed by viral infection for 2 hrs and replaced with fresh medium for 48 hrs post infection by qRT-PCR; assay type: functional, organism-based; conditions: Severe acute respiratory syndrome coronavirus 2, Vero C1008
SARS-CoV-2 [2] = assay: Antiviral activity against SARS-CoV-2 omicron variant infected in human Calu-3 cells of organoid assessed as intracellular viral RNA level measured after 48 hrs by qRT-PCR analysis; assay type: functional, organism-based; conditions: Severe acute respiratory syndrome coronavirus 2, Calu-3, 48 h

SMILES | EC50 (SARS-CoV-2 [1]) [nM] | IC50 (SARS-CoV-2 [2]) [nM]
CCC(CC)COC(=O)[C@H](C)N[P@](=O)(OC[C@H]1O[C@@](C#N)(c2ccc3c(N)ncnn23)[C@H](O)[C@@H]1O)Oc1ccccc1 | 770 | –
CC(C)C(=O)OC[C@H]1O[C@@H](n2cc/c(=N\O)[nH]c2=O)[C@H](O)[C@@H]1O [MOLNUPIRAVIR] | – | 756
